PubChem BioAssay AID248 (DTP/NCI, 2004)
Several values for one entry are separate records, joined by “and”; a condition that tells them apart may be missing. Equal entries are not always repeated. Inconclusive results and toxic doses are left out. Cut-off read from the data, not from the text of the source: active = T/C of 150% or more; inactive = T/C below 125%.

Test system: L1210 leukemia ip in BDF1 mice, survival T/C
Assay: NCI In Vivo Anticancer Drug Screen. Data for tumor model L1210 Leukemia (intraperitoneal) in B6D2F1 (BDF1) mice
Settings: endpoint: mean survival time, higher = longer survival
In short: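 Transplantable tumor model; survival measured in treated vs vehicle control mice. Value = treated/control.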

[1] = dose: 100.0 mg/kg/injection, schedule: Q01DX001 (ip), vehicle: saline
[2] = dose: 200.0 mg/kg/injection, schedule: Q01DX001 (ip), vehicle: saline
[3] = dose: 400.0 mg/kg/injection, schedule: Q01DX001 (ip), vehicle: saline
[4] = dose: 100.0 mg/kg/injection, schedule: Q01DX009 (ip), vehicle: Klucel (hydroxypropylcellulose) (HPC)
[5] = dose: 200.0 mg/kg/injection, schedule: Q01DX009 (ip), vehicle: Klucel (hydroxypropylcellulose) (HPC)
[6] = dose: 400.0 mg/kg/injection, schedule: Q01DX009 (ip), vehicle: Klucel (hydroxypropylcellulose) (HPC)
[7] = dose: 100.0 mg/kg/injection, schedule: Q01DX009 (ip), vehicle: saline with Tween-80
[8] = dose: 200.0 mg/kg/injection, schedule: Q01DX009 (ip), vehicle: saline with Tween-80
[9] = dose: 100.0 mg/kg/injection, schedule: Q04DX003 (ip), vehicle: Klucel (hydroxypropylcellulose) (HPC)
[10] = dose: 200.0 mg/kg/injection, schedule: Q04DX003 (ip), vehicle: Klucel (hydroxypropylcellulose) (HPC)
[11] = dose: 400.0 mg/kg/injection, schedule: Q04DX003 (ip), vehicle: Klucel (hydroxypropylcellulose) (HPC)
[12] = dose: 50.0 mg/kg/injection, schedule: Q01DX001 (ip), vehicle: Klucel (hydroxypropylcellulose) (HPC)
[13] = dose: 50.0 mg/kg/injection, schedule: Q01DX001 (ip), vehicle: saline
[14] = dose: 100.0 mg/kg/injection, schedule: Q01DX001 (ip), vehicle: Klucel (hydroxypropylcellulose) (HPC)
[15] = dose: 200.0 mg/kg/injection, schedule: Q01DX001 (ip), vehicle: Klucel (hydroxypropylcellulose) (HPC)

Measured: T/C

Cc1ccc(N)cc1Br
inactive: [1] 102 % of control | dose: 100.0 mg/kg/injection, schedule: Q01DX009 (ip), vehicle: saline 100 % of control | [2] 94 % of control | dose: 200.0 mg/kg/injection, schedule: Q01DX009 (ip), vehicle: saline 90 % of control | [3] 94 % of control | dose: 400.0 mg/kg/injection, schedule: Q01DX009 (ip), vehicle: saline 103 % of control

COc1nc(N)nc2c1ncn2C1OC(CO)CC1O (stereo not drawn)
inactive: dose: 50.0 mg/kg/injection, schedule: Q01DX001 (ip), vehicle: carboxymethylcellulose (CMC) 93 % of control | dose: 100.0 mg/kg/injection, schedule: Q01DX001 (ip), vehicle: carboxymethylcellulose (CMC) 93 % of control | dose: 200.0 mg/kg/injection, schedule: Q01DX001 (ip), vehicle: carboxymethylcellulose (CMC) 93 % of control | dose: 400.0 mg/kg/injection, schedule: Q01DX001 (ip), vehicle: carboxymethylcellulose (CMC) 96 % of control

S=P(N1CCCCC1)(N1CCCCC1)N1CCCCC1
inactive: [4] 100 % of control | [5] 103 % of control | [6] 100 % of control

COc1ccc(-c2sc(/N=C/c3cc(OC)c(OC)c(OC)c3)c(C#N)c2C)cc1OC
inactive: [7] 98 % of control and 103 % of control | dose: 100.0 mg/kg/injection, schedule: Q04DX002 (ip), vehicle: saline with Tween-80 93 % of control and 88 % of control | [8] 100 % of control and 88 % of control | dose: 200.0 mg/kg/injection, schedule: Q04DX002 (ip), vehicle: saline with Tween-80 93 % of control | dose: 400.0 mg/kg/injection, schedule: Q01DX009 (ip), vehicle: saline with Tween-80 92 % of control and 87 % of control | dose: 400.0 mg/kg/injection, schedule: Q04DX002 (ip), vehicle: saline with Tween-80 94 % of control and 104 % of control

CCOC(=O)C12CCC(C(=O)O)(CC1)CC2
inactive: dose: 75.0 mg/kg/injection, schedule: Q04DX002 (ip), vehicle: Klucel (hydroxypropylcellulose) (HPC) 100 % of control | dose: 150.0 mg/kg/injection, schedule: Q04DX002 (ip), vehicle: Klucel (hydroxypropylcellulose) (HPC) 106 % of control | dose: 300.0 mg/kg/injection, schedule: Q04DX002 (ip), vehicle: Klucel (hydroxypropylcellulose) (HPC) 110 % of control

CCCOC(=O)C(CC(C)(C)C)CC(C)(C)C
inactive: [1] 104 % of control | [2] 104 % of control | [3] 101 % of control

O=C1C=CC(=O)N1Nc1ccccc1
inactive: [9] 100 % of control | [10] 102 % of control | [11] 97 % of control

O=C(OCS(=O)c1ccccc1)c1ccccc1 (stereo not drawn)
inactive: [9] 94 % of control | [10] 104 % of control

C[N+](C)(CC(=O)Nc1ccc(Oc2ccc(Cl)cc2)cc1)Cc1ccccc1
inactive: dose: 12.5 mg/kg/injection, schedule: Q01DX001 (ip), vehicle: Klucel (hydroxypropylcellulose) (HPC) 104 % of control | dose: 12.5 mg/kg/injection, schedule: Q01DX009 (ip), vehicle: Klucel (hydroxypropylcellulose) (HPC) 91 % of control | dose: 25.0 mg/kg/injection, schedule: Q01DX001 (ip), vehicle: Klucel (hydroxypropylcellulose) (HPC) 101 % of control | dose: 25.0 mg/kg/injection, schedule: Q01DX009 (ip), vehicle: Klucel (hydroxypropylcellulose) (HPC) 88 % of control | [12] 93 % of control

CCOC(=O)Sc1nc2ccccc2[nH]1
inactive: dose: 75.0 mg/kg/injection, schedule: Q04DX003 (ip), vehicle: saline with Tween-80 101 % of control | dose: 150.0 mg/kg/injection, schedule: Q04DX003 (ip), vehicle: saline with Tween-80 98 % of control | dose: 300.0 mg/kg/injection, schedule: Q04DX003 (ip), vehicle: saline with Tween-80 87 % of control

COC(=O)C(C)C(=O)OC
inactive: dose: 100.0 mg/kg/injection, schedule: Q01DX009 (ip), vehicle: acetone 93 % of control | dose: 100.0 mg/kg/injection, schedule: Q04DX003 (ip), vehicle: acetone 107 % of control | dose: 200.0 mg/kg/injection, schedule: Q01DX009 (ip), vehicle: acetone 97 % of control | dose: 200.0 mg/kg/injection, schedule: Q04DX003 (ip), vehicle: acetone 97 % of control | dose: 400.0 mg/kg/injection, schedule: Q01DX009 (ip), vehicle: acetone 93 % of control | dose: 400.0 mg/kg/injection, schedule: Q04DX003 (ip), vehicle: acetone 94 % of control

O=C1c2ccccc2C(=O)N1OCCCCON1C(=O)c2ccccc2C1=O
inactive: [13] 100 % of control | [1] 106 % of control | [2] 106 % of control | [3] 102 % of control

O=C1OC2CC1(O)CC(O)C2O (stereo not drawn)
inactive: dose: 50.0 mg/kg/injection, schedule: Q01DX009 (ip), vehicle: saline with Tween-80 92 % of control | [7] 94 % of control | [8] 92 % of control

O=C(Nc1ccccc1C(=O)N/N=C/c1c(O)ccc2ccccc12)c1ccccc1Cl
inactive: [14] 95 % of control | [4] 99 % of control and 103 % of control | dose: 100.0 mg/kg/injection, schedule: Q04DX002 (ip), vehicle: Klucel (hydroxypropylcellulose) (HPC) 95 % of control and 104 % of control | [9] 100 % of control | [15] 93 % of control | [5] 101 % of control and 102 % of control | dose: 200.0 mg/kg/injection, schedule: Q04DX002 (ip), vehicle: Klucel (hydroxypropylcellulose) (HPC) 103 % of control | [10] 96 % of control | dose: 400.0 mg/kg/injection, schedule: Q01DX001 (ip), vehicle: Klucel (hydroxypropylcellulose) (HPC) 95 % of control | [6] 94 % of control and 95 % of control | dose: 400.0 mg/kg/injection, schedule: Q04DX002 (ip), vehicle: Klucel (hydroxypropylcellulose) (HPC) 93 % of control and 92 % of control | [11] 96 % of control

CCOC(=O)c1ccc(NC(=O)CCl)cc1
inactive: dose: 25.0 mg/kg/injection, schedule: Q01DX015 (ip), vehicle: saline 98 % of control | [13] 106 % of control | dose: 50.0 mg/kg/injection, schedule: Q01DX015 (ip), vehicle: saline 100 % of control | [1] 104 % of control | dose: 100.0 mg/kg/injection, schedule: Q01DX015 (ip), vehicle: saline 98 % of control | [2] 101 % of control | [3] 97 % of control

CCC(OC(=O)Nc1ccc(S(=O)(=O)NC2CCCCC2)cc1)c1ccco1 (stereo not drawn)
inactive: [1] 94 % of control | [2] 88 % of control | [3] 91 % of control

N#CCc1[nH]nc(N)c1C#N
inactive: [4] 95 % of control | [9] 89 % of control | [5] 102 % of control | [10] 93 % of control | [6] 96 % of control | [11] 91 % of control

COc1ccc(-c2c(COC(C)=O)c(COC(C)=O)c3n2CCC3)cc1
inactive: dose: 50.0 mg/kg/injection, schedule: Q01DX009 (ip), vehicle: Klucel (hydroxypropylcellulose) (HPC) 113 % of control

CCOC(=O)/C=C\n1c(=O)cc(C)c2cc3c(C)cc(=O)n(C)c3cc21
inactive: [12] 99 % of control | [14] 87 % of control | [15] 92 % of control
